Data published in PubChem BioAssay AID248 (DTP/NCI, 2004).
Toxic doses and inconclusive results are not listed. No stated cut-off is given here; in the data, active means T/C of 150% or more; inactive means T/C below 125%.

System: L1210 leukemia ip in BDF1 mice, survival T/C
Test: NCI In Vivo Anticancer Drug Screen. Data for tumor model L1210 Leukemia (intraperitoneal) in B6D2F1 (BDF1) mice
Settings: endpoint: mean survival time, higher = longer survival
Outline: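 Transplanted-tumor mice were given test agent; controls received vehicle only. Survival readings from the two groups were divided (treated over control).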

[1] = dose: 100.0 mg/kg/injection, schedule: Q01DX001 (ip), vehicle: Klucel (hydroxypropylcellulose) (HPC)
[2] = dose: 200.0 mg/kg/injection, schedule: Q01DX001 (ip), vehicle: Klucel (hydroxypropylcellulose) (HPC)
[3] = dose: 400.0 mg/kg/injection, schedule: Q01DX001 (ip), vehicle: Klucel (hydroxypropylcellulose) (HPC)
[4] = dose: 100.0 mg/kg/injection, schedule: Q04DX003 (ip), vehicle: saline with Tween-80
[5] = dose: 200.0 mg/kg/injection, schedule: Q04DX003 (ip), vehicle: saline with Tween-80
[6] = dose: 400.0 mg/kg/injection, schedule: Q04DX003 (ip), vehicle: saline with Tween-80
[7] = dose: 100.0 mg/kg/injection, schedule: Q01DX001 (ip), vehicle: carboxymethylcellulose (CMC)
[8] = dose: 200.0 mg/kg/injection, schedule: Q01DX001 (ip), vehicle: carboxymethylcellulose (CMC)
[9] = dose: 400.0 mg/kg/injection, schedule: Q01DX001 (ip), vehicle: carboxymethylcellulose (CMC)

Measured: T/C

O=c1c2ccccc2c2ccccc2n1-c1ccccc1
inactive: [1] 97 % of control | [2] 94 % of control | [3] 91 % of control

CCC/C(C)=N\O
inactive: [4] 102 % of control | [5] 111 % of control | [6] 100 % of control

Cc1cc(S(N)(=O)=O)ccc1Cl
inactive: [4] 93 % of control | [5] 93 % of control | [6] 104 % of control

ClCSc1ccccc1
inactive: dose: 100.0 mg/kg/injection, schedule: Q04DX003 (ip), vehicle: other 100 % of control | dose: 200.0 mg/kg/injection, schedule: Q04DX003 (ip), vehicle: other 104 % of control | dose: 400.0 mg/kg/injection, schedule: Q04DX003 (ip), vehicle: other 102 % of control

NNC(=O)OCCO
inactive: dose: 25.0 mg/kg/injection, schedule: Q01DX009 (ip), vehicle: saline 103 % of control | dose: 50.0 mg/kg/injection, schedule: Q01DX009 (ip), vehicle: saline 104 % of control

CC(C)(C)N(CCC(=O)c1ccccc1)C(=O)c1ccccc1
inactive: dose: 100.0 mg/kg/injection, schedule: Q01DX009 (ip), vehicle: Klucel (hydroxypropylcellulose) (HPC) 98 % of control | dose: 200.0 mg/kg/injection, schedule: Q01DX009 (ip), vehicle: Klucel (hydroxypropylcellulose) (HPC) 102 % of control | dose: 400.0 mg/kg/injection, schedule: Q01DX009 (ip), vehicle: Klucel (hydroxypropylcellulose) (HPC) 88 % of control

O=C1C=CC(=O)N1Cc1ccc[n+](CCC[n+]2cccc(CN3C(=O)C=CC3=O)c2)c1
inactive: [7] 98 % of control | [8] 91 % of control | [9] 96 % of control

COC(=O)/C=C/N(Cc1ccccc1)Cc1ccccc1
inactive: dose: 100.0 mg/kg/injection, schedule: Q01DX009 (ip), vehicle: saline with Tween-80 103 % of control | dose: 200.0 mg/kg/injection, schedule: Q01DX009 (ip), vehicle: saline with Tween-80 95 % of control | dose: 400.0 mg/kg/injection, schedule: Q01DX009 (ip), vehicle: saline with Tween-80 91 % of control

O=C(CCCCC(=O)N(CCO)CCO)N(CCO)CCO
inactive: dose: 100.0 mg/kg/injection, schedule: Q04DX003 (ip), vehicle: saline 102 % of control | dose: 200.0 mg/kg/injection, schedule: Q04DX003 (ip), vehicle: saline 100 % of control | dose: 400.0 mg/kg/injection, schedule: Q04DX003 (ip), vehicle: saline 102 % of control

O=C(O)CCC(=O)O.[Ag]
inactive: dose: 12.5 mg/kg/injection, schedule: Q04DX003 (ip), vehicle: saline with Tween-80 93 % of control | dose: 25.0 mg/kg/injection, schedule: Q01DX009 (ip), vehicle: acetone 86 % of control | dose: 25.0 mg/kg/injection, schedule: Q04DX003 (ip), vehicle: saline with Tween-80 95 % of control

O=C(O)C(c1ccccc1)P(=S)(c1ccccc1)c1ccccc1 (stereo not drawn)
inactive: dose: 75.0 mg/kg/injection, schedule: Q01DX001 (ip), vehicle: other 89 % of control | dose: 150.0 mg/kg/injection, schedule: Q01DX001 (ip), vehicle: other 111 % of control

Cc1ccc(S(=O)(=O)NC(=O)O/N=C/c2ccccn2)cc1
inactive: [4] 98 % of control | [5] 101 % of control | [6] 104 % of control

CC(=O)Nc1cc(NC(C)=O)c2nc(CN(C)c3ccc(C(=O)O)cc3)cnc2n1
inactive: dose: 100.0 mg/kg/injection, schedule: Q01DX001 (ip), vehicle: other 101 % of control | dose: 200.0 mg/kg/injection, schedule: Q01DX001 (ip), vehicle: other 98 % of control | dose: 400.0 mg/kg/injection, schedule: Q01DX001 (ip), vehicle: other 97 % of control

Nc1cccc2c1C(O)c1ccccc1-2 (stereo not drawn)
inactive: [4] 101 % of control | [5] 97 % of control | [6] 101 % of control

COc1ccccc1CN1CCCN(Cc2ccccc2OC)C1c1cccc(OC)c1O
inactive: dose: 50.0 mg/kg/injection, schedule: Q01DX001 (ip), vehicle: saline 95 % of control | dose: 100.0 mg/kg/injection, schedule: Q01DX001 (ip), vehicle: saline 101 % of control | dose: 200.0 mg/kg/injection, schedule: Q01DX001 (ip), vehicle: saline 93 % of control | dose: 400.0 mg/kg/injection, schedule: Q01DX001 (ip), vehicle: saline 93 % of control

COc1cccc(/C=N/N2CCN(/N=C/c3cccc(OC)c3OC)CC2)c1OC
inactive: [7] 94 % of control | [8] 98 % of control | [9] 100 % of control

c1cc(C2=NCCN2)ccc1C1=NCCN1
inactive: dose: 15.0 mg/kg/injection, schedule: Q01DX Z (ip), vehicle: saline 104 % of control | dose: 30.0 mg/kg/injection, schedule: Q01DX Z (ip), vehicle: saline 102 % of control | dose: 60.0 mg/kg/injection, schedule: Q01DX Z (ip), vehicle: saline 106 % of control | dose: 120.0 mg/kg/injection, schedule: Q01DX Z (ip), vehicle: saline 101 % of control

O=C(O)CSC1(SCC(=O)O)CCCCC1
inactive: [1] 103 % of control | [2] 97 % of control | [3] 97 % of control

Nc1nc(SN=Nc2ccc(S(=O)(=O)O)cc2)c2[nH]cnc2n1
inactive: dose: 11.0 mg/kg/injection, schedule: Q01DX Z (ip), vehicle: alkali diluted with saline 110 % of control | dose: 17.0 mg/kg/injection, schedule: Q01DX Z (ip), vehicle: alkali diluted with saline 120 % of control | dose: 25.0 mg/kg/injection, schedule: Q01DX Z (ip), vehicle: alkali diluted with saline 112 % of control | dose: 38.0 mg/kg/injection, schedule: Q01DX Z (ip), vehicle: alkali diluted with saline 104 % of control
